{"source": "patent US20080241254A1", "about": "“PHARMACEUTICAL COMPOSITION COMPRISING ATOVAQUONE PARTICLES” (priority 2007, published 2008)", "key": {"[1]": {"experiment": "Particle size of atovaquone particles, light scattering (Malvern Mastersizer)", "format": "physicochemical", "settings": "milled atovaquone particles before formulation", "source_text": "Conventionally known particle size analysis methods can be used suitably for determining the particle size. For example, particle size measurement can be done using light-scattering methods and turbidimetric methods, sedimentation methods, such as pipette analysis technique using an Andreassen pipette, sedimentation scales, photosedimentometers and sedimentation in a centrifugal force field, pulse methods, for example using a Coulter counter, or sorting by means of gravitational or centrifugal force.\nThe term “d9o value” means at least 90% of atovaquone particles have volume diameter less than specified value when measured by a light scattering method, for example, Malvern Mastersizer.\nAtovaquone was air jet milled using at inlet feeder air pressure of 6 kg/cm2 and inlet miller air pressure of 8 kg/cm2 at the rate of 100 g/hour. After one cycle the contents were again milled through air jet mill for second cycle to obtain the desired particle size."}, "[2]": {"settings": "cited from earlier work"}, "[3]": {"settings": "single oral dose, presence of fatty food; cited from earlier work"}}}
{"smiles": "O=C1C(O)=C(C2CCC(c3ccc(Cl)cc3)CC2)C(=O)c2ccccc21", "note": "(stereo not shown) [Atovaquone, 2-[4-(4-chlorophenyl)cyclohexyl]-3-hydroxy-1,4-naphthoquinone]", "values": [{"measurement": "d90 particle size", "setting": "[1]", "result": 5.34, "unit": "μm"}, {"measurement": "d50 particle size", "setting": "[1]; measured by Malvern", "result": 2.42, "unit": "μm"}, {"measurement": "aqueous solubility", "setting": "[2]", "result": "low aqueous solubility"}, {"measurement": "effect of fatty food on absorption", "setting": "[3]", "result": "increased about threefold"}]}
